How the values were obtained:
[1] = system: Fusobacterium nucleatum (ATCC10953); assay: Bacterial removal from root canals of inoculated extracted human mandibular molars, instrumentation/irrigation, qPCR; assay type: cell-based; conditions: pre- vs post-instrumentation/irrigation, human mandibular molars incubated 14 days anaerobic
Protocol: (§1) Forty human mandibular molars were accessed, sterilized, inoculated with Enterococcus faecalis (OG1RF) and Fusobacterium nucleatum (ATCC10953), and incubated for 14 days under anaerobic conditions. Teeth were divided into 3 groups (n=10): 1) 6.15% NaOCl, 2) 8.25% NaOCl, 3) Cysteamine. Controls (n=5): negative without inoculation and positive without instrumentation/irrigation. Mesiobuccal and mesiolingual canals were instrumented using Vortex Blue to 30/.04 and the corresponding irrigant, followed by neutralization with EDTA and saline. Samples were collected pre- and post-instrumentation/irrigation. Total DNA was extracted and quantitative real-time PCR was performed. Data were analyzed using one-way ANOVA with Bonferroni's multiple comparisons (p<0.05). See FIG. 1 for a schematic representation of the methods.

[2] = system: Enterococcus faecalis (OG1RF); assay: as above; assay type: cell-based; conditions: pre- vs post-instrumentation/irrigation, human mandibular molars incubated 14 days anaerobic
Protocol: as §1

SMILES | percent reduction in Fusobacterium nucleatum ([1]; 6.15% NaOCl irrigant) [%] | percent reduction in Fusobacterium nucleatum ([1]; 8.25% NaOCl irrigant) [%] | percent reduction in Enterococcus faecalis ([2]; 6.15% NaOCl irrigant) [%] | percent reduction in Enterococcus faecalis ([2]; 8.25% NaOCl irrigant) [%] | percent reduction in Fusobacterium nucleatum ([1]; Cysteamine irrigant) [%] | percent reduction in Enterococcus faecalis ([2]; Cysteamine irrigant) [%]
OCl [NaOCl, sodium hypochlorite] | 59.9 | 63.4 | 49 | 54 | – | –
NCCS [Cysteamine] | – | – | – | – | 68.5 | 60
